Data taken from patent US5661165A, “((4-phenyl-1,2,5-thiadiazol-3-yl)oxy)methyl ester thiocyanic acid compounds, compositions containing them and their use as antimicrobial and marine antifouling agents” (The Dow Chemical Company, priority 1996, dated 1997).
Read-outs that look alike come from different tables or passages of the source.

What was measured:
[1] = system: Bacillus subtilis (Bs); assay: MIC against bacteria (nutrient agar); assay type: cell-based, Bacillus subtilis ATCC 8473; settings: 30° C., 48 h, read-out: Minimum Inhibitory Concentration, Bs
[2] = system: Enterobacter aerogenes (Ea); assay: MIC against bacteria (nutrient agar); assay type: cell-based, Enterobacter aerogenes ATCC 13048; settings: Klebsiella aerogenes, 30° C., 48 h, read-out: Minimum Inhibitory Concentration, Ea
[3] = system: Escherichia coli (Ec); assay: MIC against bacteria (nutrient agar); assay type: cell-based, Escherichia coli ATCC 11229; settings: 30° C., 48 h, read-out: Minimum Inhibitory Concentration, Ec
[4] = system: Klebsiella pneumoniae (Kp); assay: MIC against bacteria (nutrient agar); assay type: cell-based, Klebsiella pneumoniae ATCC 8308; settings: 30° C., 48 h, read-out: Minimum Inhibitory Concentration, Kp
[5] = system: Proteus vulgaris (PV); assay: MIC against bacteria (nutrient agar); assay type: cell-based, Proteus vulgaris ATCC 881; settings: 30° C., 48 h, read-out: Minimum Inhibitory Concentration, Pv
[6] = system: Psuedomonas aeruginosa (PRD-10); assay: MIC against bacteria (nutrient agar); assay type: cell-based, Psuedomonas aeruginosa ATCC 15442; settings: 30° C., 48 h, read-out: Minimum Inhibitory Concentration, PRD
[7] = system: Psuedomonas aeruginosa (Pa); assay: MIC against bacteria (nutrient agar); assay type: cell-based, Psuedomonas aeruginosa ATCC 10145; settings: 30° C., 48 h, read-out: Minimum Inhibitory Concentration, Pa
Experimental: (§1) The antimicrobial activity of the compounds of the present invention is set forth as the minimum inhibitory concentration (MIC) for the active compounds and is determined for nine (9) bacteria, using nutrient agar, and seven (7) yeast and fungi, using malt yeast agar. This determination is conducted using a one percent solution of the test compound prepared in a mixture of acetone and water.
Nutrient agar is prepared at pH 6.8, representing a neutral medium, and at pH 8.2, representing an alkaline medium. The nutrient agars are prepared by adding 23 g of nutrient agar to one-liter of deionized water. In addition, the alkaline medium is prepared by adjusting a 0.04M solution of N-[tris-(hydroxymethyl)methyl]-glycine buffered deionized water with concentrated sodium hydroxide to a pH of 8.5.
(§2) The test tubes containing the agar are cooled in a water bath until the temperature of the agar is 48° C. Then, an appropriate amount of the one percent solution of the test compound is added (except in the controls where no compound is added) to the respective test tubes so that the final concentrations are 500, 250, 100, 50, 25, 10, 5, 2.5, 1.0 and zero parts per million of the test compound in the agar, thus having a known concentration of test compound dispersed therein. The contents of the test tubes are then transferred to respective petri plates. After drying for 24 hours, the petri plates containing nutrient agar are inoculated with bacteria and those containing malt yeast agar are inoculated with yeast and fungi.
The inoculation with bacteria is accomplished by using the following procedure. Twenty-four hour-cultures of each of the bacteria are prepared by incubating the respective bacteria in tubes containing nutrient broth for 24 hours at 30° C. in a shaker. Dilutions of each of the 24 hour-cultures are made so that nine separate suspensions (one for each of the nine test bacteria) are made, each containing 10^8 colony forming units (CFU) per mL of suspension of a particular bacteria. Aliquots of 0.3 mL of each of the bacterial suspensions are used to fill the individual wells of Steer's Replicator. For each microbial suspension, 0.3 mL was used to fill three wells (i.e., three wells of 0.3 mL each) so that for the nine different bacteria, 27 wells are filled. The Steer's Replicator is then used to inoculate both the neutral and alkaline pH nutrient agar petri plates.
The inoculated petri plates are incubated at 30° C. for 48 hours and then read to determine if the test compound which is incorporated into the agar prevented growth of the respective bacteria.
(§3) Table I lists the bacteria, yeast and fungi used in the MIC test described above along with their respective American Type Culture Collection (ATCC) identification numbers.

[8] = system: Salmonella choleraesuis (Sc); assay: MIC against bacteria (nutrient agar); assay type: cell-based, Salmonella choleraesuis ATCC 10708; settings: Salmonella enterica, 30° C., 48 h, read-out: Minimum Inhibitory Concentration, Sc
[9] = system: Staphylococcus aureus (Sa); assay: MIC against bacteria (nutrient agar); assay type: cell-based, Staphylococcus aureus ATCC 6538; settings: 30° C., 48 h, read-out: Minimum Inhibitory Concentration, Sa
[10] = system: Aperigillus niger (An); assay: MIC against yeast/fungi (malt yeast agar); assay type: cell-based, Aperigillus niger ATCC 16404; settings: 30° C., fungi read after 72 h, read-out: Minimum Inhibitory Concentration, An
Experimental: as §1
(§4) Malt yeast agar is prepared by adding 3 g yeast extract and 45 g malt agar per liter of deionized water. The specific agar is dispensed in 30 mL aliquots into 25×200 mm test tubes, capped and autoclaved for 15 minutes at 115° C.
as §2
(§5) The inoculation with the yeast and fungi is accomplished as follows. Cultures of yeast and fungi are incubated for seven days on malt yeast agar at 30° C. These cultures are used to prepare suspensions by the following procedure. A suspension of each organism is prepared by adding 10 mL of sterile saline and 10 microliters of octylphenoxy polyethoxy ethanol to the agar slant of yeast or fungi. The sterile saline/octylphenoxy polyethoxy ethanol solution is then agitated with a sterile swab to suspend the microorganism grown on the slant. Each resulting suspension is diluted into sterile saline (1 part suspension to 9 parts sterile saline). Aliquots of these dilutions are placed in individual wells of Steer's Replicator and petri plates inoculated as previously described. The petri plates are incubated at 30° C. and read after 48 hours for yeast and 72 hours for fungi.
as §3

[11] = system: Candida albicans (Ca); assay: MIC against yeast/fungi (malt yeast agar); assay type: cell-based, Candida albicans ATCC 10231; settings: 30° C., yeast read after 48 h, read-out: Minimum Inhibitory Concentration, Ca
Experimental: as §1, §4, §2, §5, §3

[12] = system: Pencillium chrysogenum (Pc); assay: MIC against yeast/fungi (malt yeast agar); assay type: cell-based, Pencillium chrysogenum ATCC 9480; settings: 30° C., fungi read after 72 h, read-out: Minimum Inhibitory Concentration, Pc
Experimental: as §1, §4, §2, §5, §3

[13] = system: Saccharomyces cerevisiae (Sc); assay: MIC against yeast/fungi (malt yeast agar); assay type: cell-based, Saccharomyces cerevisiae ATCC 4105; settings: 30° C., yeast read after 48 h, read-out: Minimum Inhibitory Concentration, Sc
Experimental: as §1, §4, §2, §5, §3

[14] = system: Trichoderma viride (Tv); assay: MIC against yeast/fungi (malt yeast agar); assay type: cell-based, Trichoderma viride ATCC 8678; settings: 30° C., fungi read after 72 h, read-out: Minimum Inhibitory Concentration, Tv
Experimental: as §1, §4, §2, §5, §3

[15] = system: Aureobasidium pullulan (Ap); assay: MIC against yeast/fungi (malt yeast agar); assay type: cell-based, Aureobasidium pullulan ATCC 16622; settings: 30° C., yeast 48 h / fungi 72 h, read-out: Minimum Inhibitory Concentration, Ap
Experimental: as §1, §4, §2, §5, §3

[16] = system: Fusarium oxysporum (Fo); assay: MIC against yeast/fungi (malt yeast agar); assay type: cell-based, Fusarium oxysporum ATCC 48112; settings: 30° C., fungi read after 72 h, read-out: Minimum Inhibitory Concentration, Fo
Experimental: as §1, §4, §2, §5, §3

Measured: MIC

N#CSCOc1nsnc1-c1cccc(F)c1 [III, ((4(3Fluorophenyl)-1,2,5-thiadiazol-3-yl)oxy)methyl ester thiocyanic acid]
< 10 µg/mL: [1]; pH 6.8, nutrient agar | [1]; pH 8.2, nutrient agar | [9]; pH 6.8, nutrient agar
500 µg/mL: [2]; pH 8.2, nutrient agar | [3]; pH 6.8, nutrient agar | [4]; pH 6.8, nutrient agar | [4]; pH 8.2, nutrient agar | [5]; pH 8.2, nutrient agar | [8]; pH 6.8, nutrient agar | [14]
25 µg/mL: [9]; pH 8.2, nutrient agar
5 µg/mL: [11]
< 1 µg/mL: [10] | [12] | [13] | [15]
100 µg/mL: [16]
> 500 µg/mL: [2]; pH 6.8, nutrient agar | [3]; pH 8.2, nutrient agar | [5]; pH 6.8, nutrient agar | [6]; pH 6.8, nutrient agar | [6]; pH 8.2, nutrient agar | [7]; pH 6.8, nutrient agar | [7]; pH 8.2, nutrient agar | [8]; pH 8.2, nutrient agar

N#CSCOc1nsnc1-c1ccc(F)cc1 [IV, ((4(4-Fluorophenyl)-1,2,5-thiadiazol-3-yl)oxy)methyl ester thiocyanic acid]
25 µg/mL: [9]; pH 8.2, nutrient agar
5 µg/mL: [11] | [16]
> 500 µg/mL: [2]; pH 6.8, nutrient agar | [3]; pH 8.2, nutrient agar | [5]; pH 6.8, nutrient agar | [6]; pH 6.8, nutrient agar | [6]; pH 8.2, nutrient agar | [7]; pH 6.8, nutrient agar | [7]; pH 8.2, nutrient agar | [8]; pH 8.2, nutrient agar
< 1 µg/mL: [12]
500 µg/mL: [2]; pH 8.2, nutrient agar | [3]; pH 6.8, nutrient agar | [4]; pH 6.8, nutrient agar | [4]; pH 8.2, nutrient agar | [5]; pH 8.2, nutrient agar | [8]; pH 6.8, nutrient agar | [14]
2.5 µg/mL: [10] | [13] | [15]
< 10 µg/mL: [1]; pH 6.8, nutrient agar | [1]; pH 8.2, nutrient agar | [9]; pH 6.8, nutrient agar
